Data reported in patent US20090233796A1, “HERBICIDAL COMPOSITION” (SYNGENTA CROP PROTECTION, INC., priority 2004, published 2009).

What was measured:
Type in all cases: in vivo
[1] = tested on: DIGITARIA SANGUINALIS; experiment: Compound (A) with glyphosate, weed plots; conditions: 840 g/ha; 52 DAA; No. 2.2
From the text: (§1) The compositions were formulated as an emulsifyable concentrate (EC).
(§2) The results in the table under each application are the percentage of the plants that were killed.

[2] = tested on: HORDEUM PUSILLUM; experiment: Compound (A) with glyphosate, weed plots; conditions: 840 g/ha; 13 DAA; No. 2.6
From the text: as §1, §2

[3] = tested on: CYNODON DACTYLON; experiment: Compound (A) with glyphosate, weed plots; conditions: 840 g/ha; 82 DAA; No. 2.1
From the text: as §1, §2

[4] = tested on: SETARIA SP.; experiment: Compound (A) with nicosulfuron, weed plots; conditions: 35 g/ha; 21 DAA; No. 3.4
Description: (§3) In these tests, various weeds were treated with nicosulfuron alone at a rate equivalent to 35 g per hectare, […] and Compound (A) at rates equivalent to the sum of these. The compositions were formulated as an emulsifyable concentrate (EC).
as §2

[5] = tested on: SETARIA VIRIDIS; experiment: Compound (A) with nicosulfuron, weed plots; conditions: 35 g/ha; 4 DAA; No. 3.11
Description: as §3, §2

[6] = tested on: IPOMOEA SP.; experiment: Compound (A) with nicosulfuron, weed plots; conditions: 35 g/ha; 5 DAA; No. 3.10
Description: as §3, §2

[7] = tested on: […]; experiment: Compound (A) with nicosulfuron, weed plots; conditions: 35 g/ha; 58 DAA; No. 3.12
Description: as §3, §2

[8] = tested on: ABUTILON THEOPHRASTI; experiment: Compound (A) with nicosulfuron, weed plots; conditions: 35 g/ha; 27 DAA; No. 3.13
Description: as §3, §2

[9] = tested on: SESBANIA EXALTATA; experiment: Compound (A) with nicosulfuron, weed plots; conditions: 35 g/ha
Description: as §3, §2

[10] = tested on: DIGITARIA SANGUINALIS; experiment: Compound (A) with nicosulfuron, weed plots; conditions: 35 g/ha
Description: as §3, §2

[11] = tested on: C[…].; experiment: Compound (A) with nicosulfuron, weed plots; conditions: 35 g/ha; 5 DAA; No. 3.8
Description: as §3, §2

[12] = tested on: BRACHIARIA PLATYPHYLLA; experiment: Compound (A) with nicosulfuron, weed plots; conditions: 35 g/ha
Description: as §3, §2

[13] = tested on: AMBROSIA TRIFIDA; experiment: Compound (A) with nicosulfuron, weed plots; conditions: 35 g/ha; 28 DAA; No. 3.15
Description: as §3, §2

[14] = tested on: CYPERUS ESCULENTUS; experiment: Compound (A) with nicosulfuron, weed plots; conditions: 35 g/ha
Description: as §3, §2

[15] = tested on: COMMELINA SP.; experiment: Compound (A) with nicosulfuron, weed plots; conditions: 35 g/ha
From the text: In these tests, […] and Compound (A) at rates equivalent to the sum of these. The compositions were formulated as an emulsifyable concentrate (EC).
as §2

[16] = tested on: Euphorbia; experiment: Compound (A) with primisulfuron, weed plots; conditions: 45 DAA, Trial 3.20
From the text: (§4) In these tests, […] and Compound (A) at rates equivalent to the sum of these. The compositions were formulated as an emulsifiable concentrate (EC).
(§5) The results in the tables under each application are the percentage of the plants that were killed.

[17] = tested on: Ipomoea; experiment: Compound (A) with primisulfuron, weed plots; conditions: 44 DAA, Trial 3.21
Description: In these tests, various weeds were treated with primisulfuron alone at a rate equivalent to 35 g per hectare, […] and Compound (A) at rates equivalent to the sum of these. The compositions were formulated as an emulsifiable concentrate (EC).
as §5

[18] = tested on: Wheat; experiment: Compound (A) with prosulfuron, weed plots; conditions: 13 DAA, No. 3.30
Description: (§6) In these tests, various weeds were treated with prosulfinuron alone at a rate equivalent to 35 g per hectare, […] and Compound (A) at rates equivalent to the sum of these. The compositions were formulated as an emulsifiable concentrate (EC).
as §5

[19] = tested on: Veronica; experiment: Compound (A) with prosulfuron, weed plots; conditions: 13 DAA, No. 3.25
Description: as §6, §5

[20] = tested on: Rice; experiment: Compound (A) with prosulfuron, weed plots; conditions: 13 DAA, No. 3.29
Description: as §6, §5

[21] = tested on: Brachiaria; experiment: Compound (A) with prosulfuron, weed plots; conditions: 13 DAA, No. 3.27
Description: as §6, §5

[22] = tested on: Euphorbia; experiment: Compound (A) with prosulfuron, weed plots; conditions: 13 DAA, No. 3.28
Description: as §6, §5

[23] = tested on: Galium; experiment: Compound (A) with prosulfuron, weed plots; conditions: 13 DAA, No. 3.24
From the text: as §4, §5

[24] = tested on: Corn; experiment: Compound (A) with prosulfuron, weed plots; conditions: 13 DAA, No. 3.26
From the text: as §4, §5

[25] = tested on: XANTHIUM STRUMARIUM; experiment: Compound (A) with S-metolachlor, weed plots; conditions: 1420 g/ha
Description: (§7) In these tests, various weeds were treated with S-metolachlor (SMOC) alone at an application rate equivalent to 1420 g per hectare, Compound (A) alone at rates equivalent to 20 g per hectare and […] and with mixtures of S-metolachlor and the Compound (A) at rates equivalent to the sum of these. The compositions were formulated as an emulsifyable concentrate (EC).
as §2

[26] = tested on: IPOMOEA SP.; experiment: Compound (A) with S-metolachlor, weed plots; conditions: 1420 g/ha
Description: as §7, §2

[27] = tested on: SESBANIA EXALTATA; experiment: Compound (A) with S-metolachlor, weed plots; conditions: 1420 g/ha; 56 DAA; Trial 4.2
Description: as §7, §2

[28] = tested on: POLYGONUM PENSYLVANICUM; experiment: Compound (A) with S-metolachlor, weed plots; conditions: 1420 g/ha; 56 DAA; Trial 4.14
Description: as §7, §2

[29] = tested on: AMBROSIA ARTEMISIIFOLIA; experiment: Compound (A) with S-metolachlor, weed plots; conditions: 1420 g/ha
Description: as §7, §2

[30] = tested on: AMBROSIA TRIFIDA; experiment: Compound (A) with S-metolachlor, weed plots; conditions: 1420 g/ha
Description: as §7, §2

[31] = tested on: C[…]; experiment: Compound (A) with S-metolachlor, weed plots; conditions: 1420 g/ha
Description: as §7, §2

[32] = tested on: E[…]-GALLI; experiment: Compound (A) with S-metolachlor, weed plots; conditions: 1420 g/ha; 28 DAA; Trial 4.1
Description: as §7, §2

[33] = tested on: ABUTILON THEOPHRASTI; experiment: Compound (A) with S-metolachlor, weed plots; conditions: 1420 g/ha
From the text: […] The compositions were formulated as an emulsifyable concentrate (EC).
as §2

[34] = tested on: Cyperus; experiment: Compound (A) with sulcotrione, weed plots; conditions: 14 DAA, Trial 5.1
Description: In these tests, various weeds were treated with sulcotrione alone at an application rate equivalent to 1420 g per hectare, […] and Compound (A) at rates equivalent to the sum of these. The compositions were formulated as an emulsifyable concentrate (EC).
as §2

O=C(O)CNCP(=O)(O)O [Glyphosate, glyphosate, reference compound]
percentage of the plants that were killed [1]: 0%
percentage of the plants that were killed [2]: 30%
percentage of the plants that were killed [3]: 0%

COc1cc(OC)nc(NC(=O)NS(=O)(=O)c2ncccc2C(=O)N(C)C)n1 [Nicosulfuron, nicosulfuron, reference compound]
percentage of the plants that were killed [4]: 70%
percentage of the plants that were killed [5]: 20%
percentage of the plants that were killed [6]: 0%
percentage of the plants that were killed [7]: 0%
percentage of the plants that were killed [8]: 50%
percentage of the plants that were killed ([9]; 44 DAA, No. 3.3): 10%
percentage of the plants that were killed ([9]; 45 DAA, No. 3.2): 0%
percentage of the plants that were killed ([10]; 4 DAA, No. 3.6): 10%
percentage of the plants that were killed ([10]; 5 DAA, No. 3.14): 0%
percentage of the plants that were killed ([10]; 21 DAA, No. 3.5): 70%
percentage of the plants that were killed [11]: 50%
percentage of the plants that were killed ([12]; 24 DAA, No. 3.16): 35%
percentage of the plants that were killed ([12]; 30 DAA, No. 3.17): 30%
percentage of the plants that were killed [13]: 0%
percentage of the plants that were killed ([14]; 7 DAA, No. 3.7): 0%
percentage of the plants that were killed ([14]; 12 DAA, No. 3.9): 0%
percentage of the plants that were killed ([15]; 10 DAA, No. 3.18): 0%
percentage of the plants that were killed ([15]; 17 DAA, No. 3.19): 0%

O=C(Nc1nc(OC(F)F)cc(OC(F)F)n1)NS(=O)(=O)c1ccccc1C(=O)O [Primisulfuron, primisulfuron, reference compound]
percentage of the plants that were killed ([16]; 7.5 g/ha): 10%
percentage of the plants that were killed ([16]; 15 g/ha): 30%
percentage of the plants that were killed ([16]; 30 g/ha): 50%
percentage of the plants that were killed ([17]; 7.5 g/ha): 0%
percentage of the plants that were killed ([17]; 15 g/ha): 20%
percentage of the plants that were killed ([17]; 30 g/ha): 25%

COc1nc(C)nc(NC(=O)NS(=O)(=O)c2ccccc2CCC(F)(F)F)n1 [Prosulfuron, prosulfuron, reference compound]
percentage of the plants that were killed ([18]; 7.5 g/ha): 0%
percentage of the plants that were killed ([18]; 15 g/ha): 0%
percentage of the plants that were killed ([18]; 30 g/ha): 0%
percentage of the plants that were killed ([19]; 7.5 g/ha): 0%
percentage of the plants that were killed ([19]; 15 g/ha): 0%
percentage of the plants that were killed ([19]; 30 g/ha): 15%
percentage of the plants that were killed ([20]; 7.5 g/ha): 0%
percentage of the plants that were killed ([20]; 15 g/ha): 0%
percentage of the plants that were killed ([20]; 30 g/ha): 0%
percentage of the plants that were killed ([21]; 7.5 g/ha): 0%
percentage of the plants that were killed ([21]; 15 g/ha): 0%
percentage of the plants that were killed ([21]; 30 g/ha): 0%
percentage of the plants that were killed ([22]; 7.5 g/ha): 20%
percentage of the plants that were killed ([22]; 15 g/ha): 20%
percentage of the plants that were killed ([22]; 30 g/ha): 30%
percentage of the plants that were killed ([23]; 7.5 g/ha): 30%
percentage of the plants that were killed ([23]; 15 g/ha): 40%
percentage of the plants that were killed ([23]; 30 g/ha): 70%
percentage of the plants that were killed ([24]; 7.5 g/ha): 0%
percentage of the plants that were killed ([24]; 15 g/ha): 0%
percentage of the plants that were killed ([24]; 30 g/ha): 0%

CCc1cccc(C)c1N(C(=O)CCl)[C@@H](C)COC [SMOC, S-metolachlor, reference compound]
percentage of the plants that were killed ([25]; 26 DAA, Trial 4.17): 38%
percentage of the plants that were killed ([25]; 42 DAA, Trial 4.18): 30%
percentage of the plants that were killed ([26]; 25 DAA, Trial 4.9): 0%
percentage of the plants that were killed ([26]; 49 DAA, Trial 4.10): 0%
percentage of the plants that were killed [27]: 20%
percentage of the plants that were killed [28]: 0%
percentage of the plants that were killed ([29]; 25 DAA, Trial 4.7): 30%
percentage of the plants that were killed ([29]; 49 DAA, Trial 4.8): 30%
percentage of the plants that were killed ([30]; 8 DAA, Trial 4.16): 25%
percentage of the plants that were killed ([30]; 42 DAA, Trial 4.15): 25%
percentage of the plants that were killed ([31]; 26 DAA, Trial 4.5): 0%
percentage of the plants that were killed ([31]; 54 DAA, Trial 4.6): 0%
percentage of the plants that were killed ([31]; 56 DAA, Trial 4.11): 0%
percentage of the plants that were killed [32]: 75%
percentage of the plants that were killed ([33]; 15 DAA, Trial 4.12): 65%
percentage of the plants that were killed ([33]; 23 DAA, Trial 4.3): 13%
percentage of the plants that were killed ([33]; 38 DAA, Trial 4.4): 0%
percentage of the plants that were killed ([33]; 56 DAA, Trial 4.13): 0%

CS(=O)(=O)c1ccc(C(=O)C2C(=O)CCCC2=O)c(Cl)c1 [Sulcotrione, sulcotrione]
percentage of the plants that were killed ([34]; 50 g/ha): 25%
percentage of the plants that were killed ([34]; 100 g/ha): 30%
percentage of the plants that were killed ([34]; 200 g/ha): 30%
